SMILES strings stand for the structures.

We go through one compound from patent US20140276355A1, “Co-administration of Light and a Therapeutic Agent to Stimulate Dysfunctional Mitochondria Affected By a Neurological Disorder” (MEDOS INTERNATIONAL SARL, priority 2013, published 2014).

The test system of test [1] is Heixudian mutants. To be noted: Drosophila Heixudian mutants; Vos et al., Science 2012; cited from earlier work.
Test [2] has as its system Drosophila model for Parkinson disease. Nature of the test: Flight assay in Drosophila model for Parkinson disease. The format is in vivo. The protocol: Flight assays were conducted using male flies in batches of 5 flies each. Flies were placed in an empty vial (5 cm×10 cm), gently tapped and scored visually for their ability to fly. […] The combination of both treatments (e.g., Vitamin K2 and light) provided more than 50% restoration of the locomotor impairment.

On to `CC(C)=CCC/C(C)=C/CC/C(C)=C/CC/C(C)=C/CC1=C(C)C(=O)c2ccccc2C1=O` [Vitamin K2], for which the severe mitochondria defects result in test [1] is recorded as “rescued”. The “restoration of the locomotor impairment (flight capacity)” value in test [2] (combination of Vitamin K2 and light (808 nm continuous laser diode, 100 s, 25 mW/cm2)) was “more than 50%”. The “restored flight capability (animals able to fly)” value in test [2] (systemic administration of Vitamin K2 alone, male flies, non-treated controls less than 15%) is on record as “about 30%”.
